According to patent publication US20260035363A1, “COMPOUNDS AND METHODS OF USE THEREOF AS ANTIBACTERIAL AGENTS” (priority 2019, published 2026):
≈ marks a conversion by molar mass, not a printed value. Read-outs that look alike come from different tables or passages of the source.

Legend:
Format in all cases: cell-based
[1] = tested on: Mycobacterium tuberculosis (Mtb-GFP; H37Rv pMSP12::GFP); test: microbe, parasite or virus in culture; conditions: 168 h, pH 6.8, read-out: Mtb Cho MITC95, cholesterol carbon source, pH 6.8, 7-day growth, GFP fluorescence, lowest concentration inhibiting 95% of growth
[2] = tested on: Mycobacterium tuberculosis (Mtb-GFP; H37Rv pMSP12::GFP); test: microbe, parasite or virus in culture; conditions: 168 h, pH 6.8, read-out: Mtb Glu MITC95, glucose carbon source, pH 6.8, 7-day growth, GFP fluorescence, lowest concentration inhibiting 95% of growth
[3] = tested on: mitochondrial protein synthesis in HepG2 cells; test: Mitochondrial protein synthesis assay (COX-I to SDH-A ratio, In Cell ELISA); conditions: 4 days, ratio of COX-I to SDH-A levels, read-out: MPS IC50
Method: Mitochondrial Protein Synthesis Assay
Inhibition of mitochondrial protein synthesis was assessed in HepG2 cells by comparing the levels of two subunits of oxidative phosphorylation enzyme complexes, subunit I of Complex IV (COX-I) and the 70 kDa subunit of Complex II (SDH-A). COX-I is mitochondrial DNA encoded and SDH-A is nuclear DNA encoded. HepG2 cells were seeded in 96-well collagen coated plates at 8,000 cells per well and exposed to 2-fold serial dilutions of compounds from 100 μM to 6.25 μM. Microtiter plates were incubated for approximately 5 replication cycles (4 days) prior to assessment of protein levels using a kit as described by the manufacturer (ab110217 MitoBiogenesis In Cell ELISA Kit, Abcam, Cambridge, MA). Inhibition of mitochondrial protein synthesis was expressed as a ratio of COX-1 to SDH-A levels.

| SMILES | MIC [1] | MIC [2] | IC50 ([3]; Homo sapiens, HepG2, 96 h) | IC50 [3] |
| --- | --- | --- | --- | --- |
| CN1CC(C)(S(=O)(=O)c2ccc(-c3ccc(C4=NO[C@@H](CNC(=O)OC5CC5)C4)cc3F)cc2)C1 [Example 17, Cyclopropyl N-[[(5R)-3-[4-[4-(1,3-dimethylazetidin-3-yl)sulfonylphenyl]-3-fluoro-phenyl]-4,5-dihydroisoxazol-5-yl]methyl]carbamate] | 0.39 µM (≈ 0.196 µg/mL) | 0.39 µM (≈ 0.196 µg/mL) | – | – |
| Fc1cc(C2=NO[C@@H](Cn3ccnn3)C2)ccc1-c1ccn2c(C3(F)CNC3)nnc2c1 [Example 52, 3-(3-Fluoroazetidin-3-yl)-7-(2-fluoro-4-{(5R)-5-[(1H-1,2,3-triazol-1-yl)methyl]-4,5-dihydro-1,2-oxazol-3-yl}phenyl)[1,2,4]triazolo [4.3-a]pyridine] | 0.78 µM (≈ 0.34 µg/mL) | 0.78 µM (≈ 0.34 µg/mL) | 27 µM | – |
| CN1CC(S(=O)(=O)c2ccc(-c3c(F)cc(C4=NO[C@@H](CNS(C)(=O)=O)C4)cc3F)cc2)C1 [Example 33, N-({(5R)-3-[2,6-Difluoro-4′-(1-methylazetidine-3-sulfonyl)[1,1′-biphenyl]-4-yl]-4,5-dihydro-1,2-oxazol-5-yl}methyl) methanesulfonamide] | 1.66 µM (≈ 0.829 µg/mL) | 1.56 µM (≈ 0.779 µg/mL) | > 100 µM | – |
| CN=S1(=O)CCC(F)(c2c(F)cc(C3=NO[C@@H](CNC(=O)OC)C3)cc2F)CC1 (single isomer, unassigned) [Example 8] | 3.12 µM (≈ 1.35 µg/mL) | 3.12 µM (≈ 1.35 µg/mL) | > 100 µM | – |
| CN1CC(C)(S(=O)(=O)c2ccc(-c3ccc(C4=NO[C@@H](CNC(=O)C5CC5)C4)cc3F)cc2)C1 [Example 49, N-({(5R)-3-[4′-(1,3-Dimethylazetidine-3-sulfonyl)-2-fluoro[1,1′-biphenyl]-4-yl]-4,5-dihydro-1,2-oxazol-5-yl}methyl) cyclopropanecarboxamide] | 0.17 µM (≈ 0.0825 µg/mL) | 0.15 µM (≈ 0.0728 µg/mL) | 51 µM | – |
| CN=S1(=O)CCC(F)(c2c(F)cc(C3=NO[C@@H](Cn4ccnn4)C3)cc2F)CC1 (single isomer, unassigned) [Example 7] | – | – | – | > 100 µM |
| CN1CC(C)(C(F)(F)c2ccc(-c3ccc(C4=NO[C@@H](Cn5ccnn5)C4)cc3F)cc2)C1 [Example 10, 1-{[(5R)-3-{4′-[(1,3-Dimethylazetidin-3-yl)(difluoro)methyl]-2-fluoro[1,1′-biphenyl]-4-yl}-4,5-dihydro-1,2-oxazol-5-yl]methyl}-1H-1,2,3-triazole] | 0.19 µM (≈ 0.0865 µg/mL) | 0.19 µM (≈ 0.0865 µg/mL) | 22 µM | – |
| CN1CC(C)(S(=O)(=O)c2ccc(-c3ccc(C4=NO[C@@H](CO)C4)cc3F)cc2)C1 [Example 21, {(5R)-3-[4′-(1,3-Dimethylazetidine-3-sulfonyl)-2-fluoro[1,1′-biphenyl]-4-yl]-4,5-dihydro-1,2-oxazol-5-yl}methanol] | 1.56 µM (≈ 0.653 µg/mL) | 1.56 µM (≈ 0.653 µg/mL) | > 100 µM | – |
| CN1CC(S(=O)(=O)c2ccc(-c3ccc(C4=NO[C@@H](CO)C4)cc3F)cc2)C1 [Example 13, [(5R)-3-[3-Fluoro-4-[4-(1-methylazetidin-3-yl)sulfonylphenyl]phenyl]-4,5-dihydroisoxazol-5-yl]methanol] | 1.2 µM (≈ 0.485 µg/mL) | 1 µM (≈ 0.404 µg/mL) | 24 µM | – |
| O=S1(=O)CCC(F)(c2ccc(C3=NO[C@@H](Cn4ccnn4)C3)cc2F)CC1 [Example 48, 4-Fluoro-4-(2-fluoro-4-{(5R)-5-[(1H-1,2,3-triazol-1-yl)methyl]-4,5-dihydro-1,2-oxazol-3-yl}phenyl)-1λ^6-thiane-1,1-dione] | 6.25 µM (≈ 2.48 µg/mL) | 6.25 µM (≈ 2.48 µg/mL) | > 100 µM | – |
| O=S1(=O)CCC(F)(c2c(F)cc(C3=NO[C@@H](CO)C3)cc2F)CC1 [Example 47, 4-{2,6-Difluoro-4-[(5R)-5-(hydroxymethyl)-4,5-dihydro-1,2-oxazol-3-yl]phenyl}-4-fluoro-1λ^6-thiane-1,1-dione] | 6.25 µM (≈ 2.27 µg/mL) | 6.25 µM (≈ 2.27 µg/mL) | > 100 µM | – |
| N=S1(=O)CCC(F)(c2c(F)cc(C3=NO[C@@H](Cn4ccnn4)C3)cc2F)CC1 (stereo partly drawn) [Example 39, 4-(2,6-Difluoro-4-{(5R)-5-[(1H-1,2,3-triazol-1-yl)methyl]-4,5-dihydro-1,2-oxazol-3-yl}phenyl)-4-fluoro-1-imino-1λ^6-thian-1-one] | – | – | – | > 100 µM |
| CN=S1(=O)CCC(F)(c2c(F)cc(C3=NO[C@@H](Cn4ccnn4)C3)cc2F)CC1 (single isomer, unassigned) [Example 6] | 1.56 µM (≈ 0.667 µg/mL) | 1.56 µM (≈ 0.667 µg/mL) | > 100 µM | – |
| CCOC(=O)NC[C@H]1CC(c2cc(F)c(C3(F)CCS(=O)(=O)CC3)c(F)c2)=NO1 [Example 55, Ethyl ({(5R)-3-[3,5-difluoro-4-(4-fluoro-1,1-dioxo-1λ^6-thian-4-yl)phenyl]-4,5-dihydro-1,2-oxazol-5-yl}methyl)carbamate] | 3.12 µM (≈ 1.36 µg/mL) | 3.12 µM (≈ 1.36 µg/mL) | > 100 µM | – |
| CN1CC(C)(S(=O)(=O)c2ccc(-c3c(F)cc(C4=NO[C@@H](Cn5ccnn5)C4)cc3F)cn2)C1 [Example 24, 5-(2,6-Difluoro-4-{(5R)-5-[(1H-1,2,3-triazol-1-yl)methyl]-4,5-dihydro-1,2-oxazol-3-yl}phenyl)-2-(1,3-dimethylazetidine-3-sulfonyl)pyridine] | 3.12 µM (≈ 1.52 µg/mL) | 3.12 µM (≈ 1.52 µg/mL) | 76 µM | – |
| CN1CCC(C)(S(=O)(=O)c2ccc(-c3ccc(C4=NO[C@@H](Cn5ccnn5)C4)cc3F)cc2)C1 (stereo partly drawn) [Example 45, l-({(5R)-3-[4′-(1,3-Dimethylpyrrolidine-3-sulfonyl)-2-fluoro[1,1′-biphenyl]-4-yl]-4,5-dihydro-1,2-oxazol-5-yl}methyl)-1H-1,2,3-triazole] | 0.39 µM (≈ 0.189 µg/mL) | 0.19 µM (≈ 0.0919 µg/mL) | 4 µM | – |
| CC1(S(=O)(=O)c2ccc(-c3ccc(C4=NO[C@@H](Cn5ccnn5)C4)cc3F)cc2)CNC1 [Example 23, 1-({(5R)-3-[2-Fluoro-4′-(3-methylazetidine-3-sulfonyl)[1,1′-biphenyl]-4-yl]-4,5-dihydro-1,2-oxazol-5-yl}methyl)-1H-1,2,3-triazole] | 0.78 µM (≈ 0.355 µg/mL) | 1.56 µM (≈ 0.711 µg/mL) | 16 µM | – |
| CC1(c2nnc3cc(-c4ccc(C5=NO[C@@H](Cn6ccnn6)C5)cc4F)ccn23)CNC1 [Example 12, 7-(2-Fluoro-4-{(5R)-5-[(1H-1,2,3-triazol-1-yl)methyl]-4,5-dihydro-1,2-oxazol-3-yl}phenyl)-3-(3-methylazetidin-3-yl)[1,2,4]triazolo[4,3-a]pyridine] | 0.78 µM (≈ 0.337 µg/mL) | 0.78 µM (≈ 0.337 µg/mL) | > 100 µM | – |
| CC(=O)NC[C@H]1CN(c2ccc(N3CCOCC3)c(F)c2)C(=O)O1 [linezolid, reference compound] | 3.14 µM (≈ 1.06 µg/mL) | 4.58 µM (≈ 1.55 µg/mL) | 8 µM | – |
| N#Cc1ccc(-c2ccc(C3=NO[C@@H](COC(N)=O)C3)cc2F)cn1 [Example 20, {(5R)-3-[4-(6-Cyanopyridin-3-yl)-3-fluorophenyl]-4,5-dihydro-1,2-oxazol-5-yl}methyl carbamate] | 0.19 µM (≈ 0.0647 µg/mL) | 0.39 µM (≈ 0.133 µg/mL) | 7.2 µM | – |
| COC(=O)NC[C@H]1CC(c2ccc(-c3ccc(S(=O)(=O)C4(C)CN(C)C4)cc3)c(F)c2)=NO1 [Example 14, Methyl N-[[(5R)-3-[4-[4-(1,3-dimethylazetidin-3-yl)sulfonylphenyl]-3-fluoro-phenyl]-4,5-dihydroisoxazol-5-yl]methyl]carbamate] | 0.12 µM (≈ 0.0571 µg/mL) | 0.12 µM (≈ 0.0571 µg/mL) | 42 µM | – |
| CN=S1(=O)CCC(F)(c2c(F)cc(C3=NO[C@@H](CNC(=O)OC)C3)cc2F)CC1 (single isomer, unassigned) [Example 9] | – | – | – | > 100 µM |
| CN1CC(Oc2ccc(-c3c(F)cc(C4=NO[C@@H](Cn5ccnn5)C4)cc3F)cc2)C1 [Example 34, 1-{[(5R)-3-{2,6-Difluoro-4′-[(1-methylazetidin-3-yl)oxy][1,1′-biphenyl]-4-yl}-4,5-dihydro-1,2-oxazol-5-yl]methyl}-1H-1,2,3-triazole] | 0.09 µM (≈ 0.0383 µg/mL) | 0.09 µM (≈ 0.0383 µg/mL) | 2.6 µM | – |
| Cc1nnc2cc(-c3c(F)cc(C4=NO[C@@H](Cn5ccnn5)C4)cc3F)ccn12 [Example 16, (5R)-3-[3,5-Difluoro-4-(3-methyl-[1,2,4]triazolo[4,3-a]pyridin-7-yl)phenyl]-5-(triazol-1-ylmethyl)-4,5-dihydroisoxazole] | 0.59 µM (≈ 0.233 µg/mL) | 0.39 µM (≈ 0.154 µg/mL) | 5.4 µM | – |
| CS(=O)(=O)NC[C@H]1CC(c2ccc(-c3ccc(S(C)(=O)=O)cc3)c(F)c2)=NO1 [Example 19, N-({(5R)-3-[2-Fluoro-4′-(methanesulfonyl)[1,1′-biphenyl]-4-yl]-4,5-dihydro-1,2-oxazol-5-yl}methyl) methanesulfonamide] | 9.38 µM (≈ 4 µg/mL) | 6.25 µM (≈ 2.67 µg/mL) | > 100 µM | – |
| O=S1(=O)CCN(c2c(F)cc(C3=NO[C@@H](Cn4ccnn4)C3)cc2F)CC1 [Example 5, 4-(2,6-Difluoro-4-{(5R)-5-[(1H-1,2,3-triazol-1-yl)methyl]-4,5-dihydro-1,2-oxazol-3-yl}phenyl)-1λ^6-thiomorpholine-1,1-dione] | 3.12 µM (≈ 1.24 µg/mL) | 3.12 µM (≈ 1.24 µg/mL) | – | – |
| CN=S1(=O)CCC(F)(c2c(F)cc(C3=NO[C@@H](CNC(C)=O)C3)cc2F)CC1 (stereo partly drawn) [Example 30, N-{[(5R)-3-{3,5-Difluoro-4-[4-fluoro-1-(methylimino)-1-oxo-1λ^6-thian-4-yl]phenyl}-4,5-dihydro-1,2-oxazol-5-yl]methyl}acetamide] | – | – | – | > 100 µM |
